Source: US20060264460A1 (Wyeth, priority 2005, published 2006)
Values belong to the compound of their own block, whether it stands above or below them.

Biological target: T1, human Cot/Tpl2 kinase (Homo sapiens, UniProt P41279)
T1 construct: human Cot/Tpl2 kinase construct encoding residues 30-398; 6His (N); made in house; host or cells: Sf9 insect cells, baculovirus system (BD Biosciences)
Assay: Tpl2/Cot kinase assay: GST-MEK1 phosphorylation detected by ELISA (DELFIA Eu)
Format: biochemical
Procedure, shortened: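 His-tagged human Tpl2 from Sf9 cells, Ni-affinity and size-exclusion purified (monomer). 0.4 nM Tpl2 with 35 nM GST-MEK1, 50 uM ATP, MOPS pH 7.2, 1% DMSO, 1 h at 30° C; EDTA stop. MEK1 Ser217/221 phosphorylation detected by anti-phospho-MEK1 and Eu-labelled secondary ELISA; IC50 fitted.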

[1] = 0.4 nM Tpl2, 35 nM GST-MEK1, 50 uM ATP, 1 h at 30° C.
[2] = Table 2, Tpl2/Cot kinase, GST-MEK1 substrate, 50 uM ATP
[3] = Tpl2/Cot kinase, GST-MEK1 substrate, 50 uM ATP
[4] = Tpl2/Cot kinase, GST-MEK1 substrate, 50 uM ATP, 1 h at 30° C., Table 2

T1 sequence (P41279 30-398): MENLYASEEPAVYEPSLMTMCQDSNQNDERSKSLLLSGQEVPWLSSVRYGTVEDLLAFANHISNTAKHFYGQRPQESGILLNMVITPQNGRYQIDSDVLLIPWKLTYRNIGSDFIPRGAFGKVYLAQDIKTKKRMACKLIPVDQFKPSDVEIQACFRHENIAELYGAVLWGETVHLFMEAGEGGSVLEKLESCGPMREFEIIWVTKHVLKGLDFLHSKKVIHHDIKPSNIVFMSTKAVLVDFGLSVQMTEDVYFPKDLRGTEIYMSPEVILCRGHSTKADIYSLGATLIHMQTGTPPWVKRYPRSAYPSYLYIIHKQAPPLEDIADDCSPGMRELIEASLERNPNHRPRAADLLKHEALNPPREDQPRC

IC50 [1]: 650 nM
Compound: N#Cc1cnc2ccc(NCc3ccn[nH]3)cc2c1NC1CCCCCC1 [Example 251, 4-(cycloheptylamino)-6-[(1H-pyrazol-5-ylmethyl)amino]quinoline-3-carbonitrile]

IC50 [2]: 82 nM
Compound: CSCCn1cc(CNc2cc(Br)c3ncc(C#N)c(Nc4ccc(F)c(Cl)c4)c3c2)nn1 [Example 508]

IC50 [2]: > 10000 nM
Compound: N#Cc1cnc2ccc(NCCN3CCOCC3)cc2c1Nc1cccc(C(F)(F)F)c1 [Example 342]

IC50 [3]: 330 nM
Compound: N#Cc1cnc2c(Br)cc(NCc3cc([C@@H]4CCCN4)n[nH]3)cc2c1Nc1ccc(F)c(Cl)c1 [Example 724]

IC50 [1]: 1360 nM
Compound: N#Cc1cnc2c(Cl)cc(NCC3CCN(Cc4cccnc4)CC3)cc2c1Nc1ccc(F)c(Cl)c1 [Example 323, 8-chloro-4-(3-chloro-4-fluorophenylamino)-6-((1-(pyridin-3-ylmethyl)piperidin-4-yl)methylamino)quinoline-3-carbonitrile]

IC50 [3]: 24 nM
Compound: CN(C)CCn1cc(CNc2cc(Br)c3ncc(C#N)c(Nc4ccc(F)c(Cl)c4)c3c2)nn1 [Example 663]

IC50 [3]: 2400 nM
Compound: N#Cc1cnc2c(Cl)cc(C(=O)O)cc2c1Nc1ccc(F)c(Cl)c1 [Example 770]

IC50 [4]: 1410 nM
Compound: N#Cc1cnc2c(Cl)cc(NCc3cn(CCN4CCCCC4)nn3)cc2c1NCC(F)(F)F [Example 985]

IC50 [1]: 370 nM
Compound: N#Cc1cnc2c(C(F)(F)F)cc(NCc3cccc[n+]3[O-])cc2c1Nc1ccc(F)c(Cl)c1 [Example 257, 4-[(3-chloro-4-fluorophenyl)amino]-6-{[(1-oxidopyridin-2-yl)methyl]amino}-8-(trifluoromethyl)quinoline-3-carbonitrile]

IC50 [4]: 46 nM
Compound: CS(=O)(=O)N1C2CCC1CC(n1cc(CNc3cc(Cl)c4ncc(C#N)c(Nc5ccc(F)c(Cl)c5)c4c3)nn1)C2 (centres unmarked) [Example 1050]

IC50 [1]: 6.8 nM
Compound: N#Cc1cnc2c(Br)cc(NCc3cnc[nH]3)cc2c1Nc1ccc(F)c(Cl)c1 [Example 76, 6-((1H-imidazol-5-yl)methylamino)-8-bromo-4-(3-chloro-4-fluorophenylamino)quinoline-3-carbonitrile]

IC50 [3]: 25 nM
Compound: N#Cc1cnc2c(Cl)cc(NCc3cn(CCc4ccccn4)nn3)cc2c1Nc1ccc(F)c(Cl)c1 [Example 746]

IC50 [2]: 49 nM
Compound: N#Cc1cnc2c(Cl)cc(NCc3csnn3)cc2c1Nc1ccc(F)c(Cl)c1 [Example 440]

IC50 [3]: 22 nM
Compound: N#Cc1cnc2c(Cl)cc(NCc3ccncc3)cc2c1Nc1ccc(F)c(Cl)c1 [Example 845]

IC50 [2]: 330 nM
Compound: N#Cc1cnc2c(Br)cc(NCc3cc([C@@H]4CCCN4)n[nH]3)cc2c1Nc1ccc(F)c(Cl)c1 [Example 555]

IC50 [2]: 22 nM
Compound: CN1CCC(n2cc(CN(C)c3cc(Br)c4ncc(C#N)c(Nc5ccc(F)c(Cl)c5)c4c3)nn2)CC1 [Example 506]

IC50 [2]: 110 nM
Compound: Cc1cc(CNc2ccc3ncc(C#N)c(Nc4ccc(F)c(Cl)c4)c3c2)n[nH]1 [Example 385]

IC50 [2]: > 40000 nM
Compound: N#Cc1cnc2c(Br)cc(N(Cc3cn(CCN4CCOCC4)nn3)Cc3cn(CCN4CCOCC4)nn3)cc2c1Nc1ccc(F)c(Cl)c1 [Example 477]

IC50 [2]: 20600 nM
Compound: Cc1[nH]c(-c2cccnc2)nc1CNc1cc(Cl)c2ncc(C#N)c(Nc3ccc(F)c(Cl)c3)c2c1 [Example 444]

IC50 [2]: 1000 nM
Compound: Cn1ncc(Br)c1CNc1cc(Br)c2ncc(C#N)c(Nc3ccc(F)c(Cl)c3)c2c1 [Example 456]

IC50 [2]: 29 nM
Compound: CNCCn1cc(CNc2cc(Cl)c3ncc(C#N)c(Nc4ccc(F)c(Cl)c4)c3c2)nn1 [Example 513]

IC50 [4]: 380 nM
Compound: CN(C)CCn1cc(CNc2ccc3ncc(C#N)c(NC4CCCCC4)c3c2)nn1 [Example 969]

IC50 [3]: 0.6 nM
Compound: CCNC(=O)N1CCC[C@@H]1Cn1cc(CNc2cc(Cl)c3ncc(C#N)c(Nc4ccc(F)c(Cl)c4)c3c2)nn1 [Example 899]

IC50 [2]: 21300 nM
Compound: N#Cc1cnc2ccc(NCc3ccccc3)cc2c1NC1CCCC1 [Example 415]

IC50 [3]: 35 nM
Compound: CC(=O)Nc1ccc(-n2cc(CNc3cc(Cl)c4ncc(C#N)c(Nc5ccc(F)c(Cl)c5)c4c3)nn2)cc1 [Example 802]

IC50 [1]: 2.6 nM
Compound: N#Cc1cnc2c(Cl)cc(NCc3nnn[nH]3)cc2c1Nc1ccc(F)c(Cl)c1 [Example 279, 8-Chloro-4-[(3-chloro-4-fluorophenyl)amino]-6-[(1 H-tetrazol-5-ylmethyl)amino]quinoline-3-carbonitrile]

IC50 [4]: 510 nM
Compound: N#Cc1cnc2ccc(NCc3cn(CCN4CCCCCC4)nn3)cc2c1NC1CCCCC1 [Example 970]

IC50 [3]: 75 nM
Compound: CC(C)(C)OC(=O)N1CCC(CCn2cc(CNc3cc(Cl)c4ncc(C#N)c(Nc5ccc(F)c(Cl)c5)c4c3)nn2)CC1 [Example 674]

IC50 [2]: > 3000 nM
Compound: N#Cc1cnc2c(Cl)cc(NC3CCCC3Cl)cc2c1Nc1ccc(F)c(Cl)c1 (centres unmarked) [Example 628]

IC50 [4]: 3.3 nM
Compound: CC(=O)N1CCC(n2cc(CNc3cc(Cl)c4ncc(C#N)c(Nc5ccc(F)c(Cl)c5)c4c3)nn2)CC1 [Example 930]

IC50 [1]: 13 nM
Compound: N#Cc1cnc2c(F)cc(NCc3cccc[n+]3[O-])cc2c1Nc1ccc(F)c(Cl)c1 [Example 266, 4-[(3-chloro-4-fluorophenyl)amino]-8-fluoro-6-{[(1-oxidopyridin-2-yl)methyl]amino}quinoline-3-carbonitrile]

IC50 [3]: 8.4 nM
Compound: N#Cc1cnc2c(Cl)cc(NCc3cn(C[C@H]4CCCN4)nn3)cc2c1Nc1ccc(F)c(Cl)c1 [Example 889]

IC50 [4]: 300 nM
Compound: CC(C)(C)OC(=O)N1C2CCC1CC(n1cc(CNc3cc(Cl)c4ncc(C#N)c(Nc5ccc(F)c(Cl)c5)c4c3)nn1)C2 (centres unmarked) [Example 1046]

IC50 [1]: 17300 nM
Compound: Cc1nn(C)c(Cl)c1CNc1ccc2ncc(C#N)c(Nc3ccc(F)c(Cl)c3)c2c1 [Example 132, 6-((5-chloro-1,3-dimethyl-1H-pyrazol-4-yl)methylamino)-4-(3-chloro-4-fluorophenylamino)quinoline-3-carbonitrile]

IC50 [4]: 810 nM
Compound: CC(C)(C)OC(=O)N1CCC(n2cc(CNc3cc(Cl)c4ncc(C#N)c(NC5CCC5)c4c3)nn2)CC1 [Example 953]

IC50 [3]: > 3000 nM
Compound: COC(=O)c1cc(Cl)c2ncc(C#N)c(Nc3ccc(F)c(Cl)c3)c2c1 [Example 760]

IC50 [1]: 780 nM
Compound: N#Cc1cnc2c(C(F)(F)F)cc(NCc3cncs3)cc2c1Nc1ccc(F)c(Cl)c1 [Example 239, 4-[(3-chloro-4-fluorophenyl)amino]-6-[(1,3-thiazol-5-ylmethyl)amino]-8-(trifluoromethyl)quinoline-3-carbonitrile]

IC50 [3]: 48 nM
Compound: N#Cc1cnc2c(Cl)cc(NCc3cn(CC4CCCNC4)nn3)cc2c1Nc1ccc(F)c(Cl)c1 (centres unmarked) [Example 719]

IC50 [4]: 48 nM
Compound: N#Cc1cnc2c(Cl)cc(NCc3cn(CC(O)c4ccccn4)nn3)cc2c1Nc1ccc(F)c(Cl)c1 (centres unmarked) [Example 993]

IC50 [4]: 980 nM
Compound: CN(C)CCCc1csc(CNc2cc(Cl)c3ncc(C#N)c(Nc4ccc(F)c(Cl)c4)c3c2)c1 [Example 1022]

IC50 [2]: 14 nM
Compound: N#Cc1cnc2c(Cl)cc(NCc3cn(C4CCOCC4)nn3)cc2c1Nc1ccc(F)c(Cl)c1 [Example 570]

IC50 [3]: 0.9 nM
Compound: Cc1c(Cn2cc(CNc3cc(Cl)c4ncc(C#N)c(Nc5ccc(F)c(Cl)c5)c4c3)nn2)ccc[n+]1[O-] [Example 842]

IC50 [2]: > 3000 nM
Compound: CN(C)Cc1cn(C2CCCC2Nc2cc(Cl)c3ncc(C#N)c(Nc4ccc(F)c(Cl)c4)c3c2)nn1 (centres unmarked) [Example 636]

IC50 [4]: 730 nM
Compound: CN(C)CCn1cc(CNc2cc(Cl)c3ncc(C#N)c(NC4CCC4)c3c2)nn1 [Example 956]
